Values after ≈ are worked out from the molar mass of the structure shown. Where two headings read alike, the source gives them in different places.
Legend:
cucumber powdery mildew = test: field efficacy test for cucumber powdery mildew; type: in vivo; details: spray
Procedure: Field efficacy test for preventing and treating cucumber powdery mildew.
The test object is cucumber powdery mildew. The test is carried out on Xiaoying village of Liuhe district of Nanjing city, Jiangsu Province, China, the field trend of the test is flat, the soil is loam, the fertility is medium, the pH value is 6.8, and the management of rich water during the test is medium. And setting blank contrast, repeating the treatment for 3 times, wherein each cell has 30 square meters and is arranged in random block groups. The water consumption per acre is 40 L by adopting a conventional spraying method, and the water is uniformly sprayed on the front and back surfaces of the leaves.
The investigation and statistical method comprises the steps of investigating the base of illness state before application of the medicament, and investigating once again 10-14 days after the last application of the medicament, wherein 2 times of investigation are total. Four points are randomly taken from each cell, 2 plants are investigated from each point, all leaves are investigated from each plant, and each leaf is graded and recorded according to the percentage of lesion spots to the leaf area. The grading method comprises the following steps: • stage 0: no lesion spots; • stage 1: the lesion area accounts for less than 5% of the whole leaf area; • stage 3: the ratio of the lesion spot area to the whole leaf area is more than 6% to less than 10%; • stage 5: the ratio of the lesion spot area to the whole leaf area is more than 11% to less than 25%; • stage 7: the ratio of the lesion spot area to the whole leaf area is more than 26% to less than 50%; • stage 9: the ratio of the lesion spot area to the whole leaf area is more than 50%;
When the fungicidal activity of the active compound combination exceeds the sum of the activities of the active compounds when applied individually, then there is always a synergistic effect of the fungicides. The expected activity of a given combination of two active compounds can be calculated (according to the Colby formula) as follows (refer to S. R. Colby, “Calculation of the synergistic andantagonistic responses of herbicide combinations”, Weeds 1967, 15, pages 20-22):
[formula] • X is the efficacy of component A when applied at an application rate of m g a.i./ha, • Y is the efficacy of component B when applied at an application rate of n g a.i./ha, • Cexp is the expected efficacy when the active compound A is administered at an application rate of m g a.i./ha and the active compound B is administered at an application rate of n g a.i./ha, respectively, • the degree of efficacy is expressed as %: 0% means the efficacy corresponding to the control group, while 100% efficacy means no disease observed. • C-Cobs/Cexp, C>1 indicates synergy and antagonism if C<1.

[1] = test system: rape sclerotinia sclerotiorum; test: plate method, inhibition of hypha growth (in-vessel bioassay); type: cell-based; details: for EC50: Sclerotinia sclerotiorum
[2] = test system: wheat rust (Puccinia striiformis f. sp. tritici); test: pot culture method, protective control of wheat rust; type: in vivo; details: for Measured Toxicity Index of Mixture (ATI): standard fungicide = component A; for EC50: Puccinia striiformis
Blumeria graminis = test: pot culture method, protective control of wheat powdery mildew; type: in vivo; details: for Measured Toxicity Index of Mixture (ATI): standard fungicide = component A; for EC50: Blumeria graminis, control efficacy, potted wheat, sprayed 24 h before inoculation, 7 days after inoculation
[3] = test system: wheat scab germ (Fusarium graminearum); test: microbe, parasite or virus in culture; type: cell-based; details: for Measured Toxicity Index of Mixture (ATI): standard fungicide = component A
[4] = single component B, g a.i./ha: azoxystrobin 72, fludioxonil 50, pyraclostrobin 160, difenoconazole 100
[5] = hypha growth inhibition, plate method, wheat fusarium graminearum

| Molecule | EC50 [1] | Measured Toxicity Index of Mixture (ATI) [2] | Measured Toxicity Index of Mixture (ATI) (Blumeria graminis) | Measured Toxicity Index of Mixture (ATI) [3] | EC50 [2] | EC50 (Blumeria graminis) | EC50 ([3]; Fusarium graminearum) | also measured |
| --- | --- | --- | --- | --- | --- | --- | --- | --- |
| CO/C=C(/C(=O)OC)c1ccccc1Oc1cc(Oc2ccccc2C#N)ncn1 [azoxystrobin] | – | – | – | – | – | – | – | Cobs Actual control Effect (cucumber powdery mildew; [4]): 50.28% |
| N#Cc1c(Cl)c(Cl)c(Cl)c(C#N)c1Cl [chlorothalonil] | 0.82 µg/mL (≈ 3.08 µM) | – | – | – | – | – | – | Measured Toxicity Index of Mixture (ATI) [1]: 1.22 |
| CC(C1CC1)C(O)(Cn1cncn1)c1ccc(Cl)cc1 (stereo not drawn) [ciproconazole] | – | 233.08 | 94.12 | 0.50 | – | – | – | EC50 [3, 5]: 2 µg/mL (≈ 6.85 µM) |
| C=C(CN(C(=O)c1c(C(F)F)nn(C)c1F)C1CC1)c1ccc(Cl)cc1Cl [component A] | 0.01 µg/mL (≈ 0.0239 µM) | 100.00 | 100.00 | 100.00 | 29 µg/mL (≈ 69.3 µM) | 16 µg/mL (≈ 38.3 µM) | 0.01 µg/mL (≈ 0.0239 µM) | Cobs Actual control Effect (cucumber powdery mildew; 40 g a.i./ha): 37.60%; Cobs Actual control Effect (cucumber powdery mildew; 60 g a.i./ha): 46.88%; Cobs Actual control Effect (cucumber powdery mildew; 104 g a.i./ha): 54.68%; Cobs Actual control Effect (cucumber powdery mildew; 150 g a.i./ha): 67.74%; Measured Toxicity Index of Mixture (ATI) ([1]; standard fungicide = component A): 100 |
| CC1COC(Cn2cncn2)(c2ccc(Oc3ccc(Cl)cc3)cc2Cl)O1 (stereo not drawn) [difenoconazole] | – | – | – | – | – | – | – | Cobs Actual control Effect (cucumber powdery mildew; [4]): 67.85% |
| N#Cc1c[nH]cc1-c1cccc2c1OC(F)(F)O2 [fludioxonil] | 0.015 µg/mL (≈ 0.0604 µM) | – | – | – | – | – | – | Cobs Actual control Effect (cucumber powdery mildew; [4]): 47.70%; Measured Toxicity Index of Mixture (ATI) [1]: 66.67 |
| CC1(C)CCC(Cc2ccc(Cl)cc2)C1(O)Cn1cncn1 (stereo not drawn) [metconazole] | – | – | – | 33.33 | – | – | 0.03 µg/mL (≈ 0.0938 µM) | – |
| CCOC(=O)C(C#N)=C(N)c1ccccc1 [phenamacril] | – | – | – | 2.50 | – | – | – | EC50 [3, 5]: 0.4 µg/mL (≈ 1.85 µM) |
| CCCN(CCOc1c(Cl)cc(Cl)cc1Cl)C(=O)n1ccnc1 [prochloraz] | 0.08 µg/mL (≈ 0.212 µM) | – | – | 50.00 | – | – | 0.02 µg/mL (≈ 0.0531 µM) | Measured Toxicity Index of Mixture (ATI) [1]: 12.5 |
| CCCC1COC(Cn2cncn2)(c2ccc(Cl)cc2Cl)O1 (stereo not drawn) [propiconazole] | – | 193.33 | 145.45 | – | 15 µg/mL (≈ 43.8 µM) | 11 µg/mL (≈ 32.1 µM) | – | – |
| OC(Cc1ccccc1Cl)(Cn1nc[nH]c1=S)C1(Cl)CC1 (stereo not drawn) [prothioconazole] | – | 322.22 | 114.29 | 0.25 | 9 µg/mL (≈ 26.1 µM) | 14 µg/mL (≈ 40.7 µM) | 4 µg/mL (≈ 11.6 µM) | – |
| COC(=O)N(OC)c1ccccc1COc1ccn(-c2ccc(Cl)cc2)n1 [pyraclostrobin] | – | 241.67 | 133.33 | 0.50 | 12 µg/mL (≈ 30.9 µM) | 12 µg/mL (≈ 30.9 µM) | 2 µg/mL (≈ 5.16 µM) | Cobs Actual control Effect (cucumber powdery mildew; [4]): 72.87% |
| CC(C)(C)C(O)(CCc1ccc(Cl)cc1)Cn1cncn1 (stereo not drawn) [tebuconazole] | 0.1 µg/mL (≈ 0.325 µM) | 181.25 | 123.08 | 16.67 | 16 µg/mL (≈ 52 µM) | 13 µg/mL (≈ 42.2 µM) | 0.06 µg/mL (≈ 0.195 µM) | Measured Toxicity Index of Mixture (ATI) [1]: 10.00 |
| OCC1=C[C@H](N[C@H]2C[C@H](CO)[C@@H](O[C@@H]3O[C@H](CO)[C@@H](O)[C@H](O)[C@H]3O)[C@H](O)[C@H]2O)[C@H](O)[C@@H](O)[C@@H]1O [validamycin] | – | – | – | 0.08 | – | – | 13 µg/mL (≈ 26.1 µM) | – |
| fluazolidinamide | – | 116.00 | 80.00 | – | – | – | – | – |

Reference: patent publication US20260068884A1, “COMPOSITION USED FOR KILLING FUNGI AND METHOD FOR APPLYING COMPOSITION” (JIANGSU FLAG CHEMICAL INDUSTRY CO., LTD., priority 2022, published 2026)
